Experimental data as given in paper PMC8657723, “Novel Pituitary Actions of TAC4 Gene Products in Teleost” (International Journal of Molecular Sciences, 2021).
“Also recorded” adds a separate entry of the source.

Tests used:
Assay type in all cases: cell-based, grass carp (Ctenopharyngodon idellus)
NK2R = experiment: Functional activation of grass carp NK2R, NFAT-Luc reporter in HEK293T cells; settings: among the six NKR isoforms
Method: To clarify the receptor selectivity of TAC4 gene products, a transfection experiment was conducted in HEK293T cells, and the fluorescent signal was detected by the firefly luciferase reporter gene detection kit. Firstly, the cDNA sequences of neurokinin receptor 1 isoforms a (NK1Ra), neurokinin receptor 1 isoforms b (NK1Rb), NK2R, neurokinin receptor 3 isoforms a1 (NK3Ra1), neurokinin receptor 3 isoforms a2 (NK3Ra2), and neurokinin receptor 3 isoforms b (NK3Rb) were isolated from grass carp pituitary, and the coding region of the six receptors were then subcloned into the eukaryotic expression vector pcDNA3.1. Secondly, the HEK293T cells were co-transfected with the plasmids of NFAT-Luc (Nuclear factor of activated T cells-luciferase), green fluorescent protein (GFP), and each pcDNA3.1-NKRs by using Lipofectamine 3000 (Thermo Fisher). The transfected HEK293T cells were incubated with various concentration HK-1 (1–10,000 nM), HK-2 (1–10,000 nM), or HK1-V7F (1–10,000 nM) for 24 h, respectively. Finally, the transfected cells were collected to detect the luciferase value according to the instructions of the firefly luciferase reporter gene detection kit. […]
Figure 2 Receptor selectivity of HK1, HK2, and HK1-V7F. […] Each point is determined quadruplicate and is given as a mean ± SEM. […]

[1] = system: grass carp pituitary cells; experiment: RT-qPCR of pituitary gene mRNA expression after peptide treatment of grass carp pituitary cells
Source text: To further confirm the pituitary actions of HKs in grass carp, trypsin digestion method was used to prepare for grass carp primary cultured pituitary cells. […] After drug treatment, total RNA was extracted from adherent cells by Trizol, and then subjected to reverse transcription using HifairTM III 1st Strand cDNA Synthesis Kit (Yeasen, Shanghai, China). In the present study, β-actin was used as the internal reference gene, and then, the transcript levels of PRL, SLα, CART2, UTS1, and NMB1 were detected by using a ABI 7500 real-time PCR system (see Supplementary Table S2 for primer sequences and PCR condition). In addition, the plasmid DNA containing the gene coding sequence was serially diluted as a standard for data calibration.
In this study, RT-qPCR was used to detect mRNA expression for TAC4, NKRs, PRL, SLα, CART2, UTS1, SN2, and NMB1. In the ABI7500 software, the dynamic mRNA concentration detection range of the double standard curve is 10^5, and the correlation coefficient is >0.95. […] In the transfection experiment, the detected firefly luciferase activity was routinely normalized with the GFP activity expressed in the same well, expressed as the luciferin activity ratio Luc ratio. The data from four parallel experiments was presented as mean ± SEM in the figure. All the data were analyzed by ANOVA, and then subjected to Dunnett’s test in GraphPad Prism 7.0. The significant differences between groups were indicated by p < 0.05.
Figure 5 TAC4 gene products (HK1 and HK2) induced PRL (A) and SLα (B) mRNA expression in grass carp pituitary cells. Time course of grass carp HK1 (1 μM) and HK2 (1 μM) on PRL (A) and SLα (B) mRNA expression in grass carp pituitary cells. Dose-dependence of 24-h treatment with increasing levels of HK1 and HK2 (0.1–1000 nM) on PRL (A) and SLα (B) mRNA expression in grass carp pituitary cells. After drug treatment, the total RNA of the cells was extracted by the Trizol method, and the expression of various genes was detected by RT-PCR. Data presented were expressed as mean ± SEM, and the differences between groups were significant at p-value < 0.05 by labeling diverse letters.
Figure 6 TAC4 gene products (HK1 and HK2) induced CART2, NMB1, and UTS1 mRNA expression in grass carp pituitary cells. Time course of grass carp HK1 (1 μM) and HK2 (1 μM) on CART2 (A), NMB1 (B), and UTS1 (C) mRNA expression in grass carp pituitary cells. Dose-dependence of 24-h treatment with increasing levels of HK1 or HK2 (0.1–1000 nM) on CART2 (A), NMB1 (B), and UTS1 (C) mRNA expression in grass carp pituitary cells. After drug treatment, the total RNA of the cells was extracted by the Trizol method, and the expression of various genes were detected by RT-PCR. Data presented were expressed as mean ± SEM, and the differences between groups were significant at p-value < 0.05 by labeling diverse letters.
(§1) Figure 9 Phe to Val mutation in FXGLM motif in PRL, SLα, and UTS1 regulation by HK2 in grass carp pituitary cells. (A) Effects of HK1-V7F on PRL, SLα, and UTS1 mRNA expression in grass carp pituitary cells. In this experiment, grass carp pituitary cells were incubated for 24 h with increasing levels of HK1-V7F (0.1–1000 nM). (B) Suppressed effects of HK1 on HK2-induced PRL, SLα, and UTS1 mRNA expression in grass carp pituitary cells. Pituitary cells were challenged for 24 h with grass carp HK2 (0.1 µM) in the presence or absence of HK1 (1 µM) and HK1 (10 µM). In these experiment, Trizol method was used to extract total cell RNA, and RT-PCR was used to detect PRL, SLα, and UTS1 mRNA expression. Data presented are expressed as mean ± SEM, and the differences between groups were significant at p-value < 0.05 by labeling diverse letters.

six NKR isoforms = experiment: Functional activation of the six grass carp NKR isoforms, NFAT-Luc reporter in HEK293T cells; settings: 24 h
Method: To clarify the receptor selectivity of TAC4 gene products, a transfection experiment was conducted in HEK293T cells, and the fluorescent signal was detected by the firefly luciferase reporter gene detection kit. Firstly, the cDNA sequences of neurokinin receptor 1 isoforms a (NK1Ra), neurokinin receptor 1 isoforms b (NK1Rb), NK2R, neurokinin receptor 3 isoforms a1 (NK3Ra1), neurokinin receptor 3 isoforms a2 (NK3Ra2), and neurokinin receptor 3 isoforms b (NK3Rb) were isolated from grass carp pituitary, and the coding region of the six receptors were then subcloned into the eukaryotic expression vector pcDNA3.1. Secondly, the HEK293T cells were co-transfected with the plasmids of NFAT-Luc (Nuclear factor of activated T cells-luciferase), green fluorescent protein (GFP), and each pcDNA3.1-NKRs by using Lipofectamine 3000 (Thermo Fisher). The transfected HEK293T cells were incubated with various concentration HK-1 (1–10,000 nM), HK-2 (1–10,000 nM), or HK1-V7F (1–10,000 nM) for 24 h, respectively. Finally, the transfected cells were collected to detect the luciferase value according to the instructions of the firefly luciferase reporter gene detection kit.
To clarify the receptor selectivity of HK1 and HK2 for the six NKRs, HEK-293T cell lines were established to stably express NK1Ra, NK1Rb, NK2R, NK3Rb, NK3Ra1, or NK3Ra2 were established, respectively. The cells were then used for transfection study with NFAT-Luc vectors, which was allowed for functional evaluation of the activation status of Ca^2+-dependent pathway.
Figure 2 Receptor selectivity of HK1, HK2, and HK1-V7F. The nuclear factor of activated T-cells (NFAT)-Luc reporter together with NK1Ra, NK1Rb, NK2R, NK3Rb, NK3Ra1, or NK3Ra2, were transiently transfected into HEK-293 cells, respectively. The cells were incubated with increasing levels of grass carp HK1, HK2, or HK1-V7F (0.1–1000 nM), respectively. The luciferase activities were normalized against renilla expression in the same sample to adjust for potential variations in transfection efficiency. Each point is determined quadruplicate and is given as a mean ± SEM. The groups denoted by different letters represent significant differences at p-value < 0.05 (ANOVA followed Dunnett’s test).

[2] = system: grass carp pituitary cells; experiment: Antagonist effect of HK1 on HK2-induced mRNA expression in grass carp pituitary cells; settings: HK2 0.1 µM + HK1 1 µM and 10 µM, 24 h
Method: as §1
Furthermore, to verify whether HK1 could function as an endogenous antagonist of NKRs, we examined the antagonist effect of HK1 on HK2-induced pituitary hormone genes expression.

[3] = 1 µM, 3 h, 6 h, 24 h, 48 h, RT-qPCR, β-actin
[4] = 0.1–1000 nM, 24 h, RT-qPCR, β-actin
[5] = Figure 9B, 24 h static incubation, HK2 0.1 µM

Substance: TPGLQQVFGLM-NH2 [HK1, grass carp TAC4 mature peptide, …-NH2]
- NK2R activation (in words) (NK2R): very weak activation
- CART2 mRNA expression, time course [1, 3]: no effect
- NMB1 mRNA expression, time course [1, 3]: no effect
- PRL mRNA expression, time course [1, 3]: no effect
- SLα mRNA expression, time course [1, 3]: no effect
- UTS1 mRNA expression, time course [1, 3]: no effect
- CART2 mRNA expression, dose-dependence [1, 4]: ineffective
- NMB1 mRNA expression, dose-dependence [1, 4]: ineffective
- PRL mRNA expression, dose-dependence [1, 4]: ineffective
- SLα mRNA expression, dose-dependence [1, 4]: ineffective
- UTS1 mRNA expression, dose-dependence [1, 4]: ineffective
- PRL mRNA stimulation compared to HK2 [1, 5]: much weaker
- SLα mRNA stimulation compared to HK2 [1, 5]: much weaker
- UTS1 mRNA stimulation compared to HK2 [1, 5]: much weaker
- pituitary genes' expression (summary) ([1]; grass carp pituitary cells, PRL, SLα, UTS1, NMB1, CART2): notably weaker; also recorded: ineffective for the six pituitary genes’ expression
- ED50, NFAT-Luc luciferase activity, NKR isoforms (six NKR isoforms; HEK-293T expressing each NKR): > 10 µM
- activation of the six NKR isoforms (in words) (six NKR isoforms; NFAT-Luc luciferase, HEK293T, NK1Ra, NK1Rb, NK2R, NK3Ra1, NK3Ra2, NK3Rb): very weak activation; also recorded: relatively low efficient stimulant; also recorded: could barely activate any NKR isoforms
- suppression of HK2-induced PRL mRNA expression [2]: could not suppress; also recorded: could not block
- suppression of HK2-induced SLα mRNA expression [2]: could not suppress; also recorded: could not block
- suppression of HK2-induced UTS1 mRNA expression [2]: could not suppress; also recorded: could not block
